From ChEMBL document CHEMBL3822429, “Identification of novel EZH2 inhibitors through pharmacophore-based virtual screening and biological assays” (Bioorg Med Chem Lett, 2016)

How the values were obtained:
[1] = molecular target: T1, Histone-lysine N-methyltransferase EZH2 (Homo sapiens, UniProt Q15910); assay: Inhibition of PRC2 EZH2 sub unit (unknown origin) assessed as inhibition of SAM-mediated methyl transfer process at 50 uM preincubated for 15 mins followed by addition of H3K27me and [3H]SAM as substrate measured after 90 mins by radioactive methylation assay
Target sequence in this assay (Q15910 whole entry, looked up): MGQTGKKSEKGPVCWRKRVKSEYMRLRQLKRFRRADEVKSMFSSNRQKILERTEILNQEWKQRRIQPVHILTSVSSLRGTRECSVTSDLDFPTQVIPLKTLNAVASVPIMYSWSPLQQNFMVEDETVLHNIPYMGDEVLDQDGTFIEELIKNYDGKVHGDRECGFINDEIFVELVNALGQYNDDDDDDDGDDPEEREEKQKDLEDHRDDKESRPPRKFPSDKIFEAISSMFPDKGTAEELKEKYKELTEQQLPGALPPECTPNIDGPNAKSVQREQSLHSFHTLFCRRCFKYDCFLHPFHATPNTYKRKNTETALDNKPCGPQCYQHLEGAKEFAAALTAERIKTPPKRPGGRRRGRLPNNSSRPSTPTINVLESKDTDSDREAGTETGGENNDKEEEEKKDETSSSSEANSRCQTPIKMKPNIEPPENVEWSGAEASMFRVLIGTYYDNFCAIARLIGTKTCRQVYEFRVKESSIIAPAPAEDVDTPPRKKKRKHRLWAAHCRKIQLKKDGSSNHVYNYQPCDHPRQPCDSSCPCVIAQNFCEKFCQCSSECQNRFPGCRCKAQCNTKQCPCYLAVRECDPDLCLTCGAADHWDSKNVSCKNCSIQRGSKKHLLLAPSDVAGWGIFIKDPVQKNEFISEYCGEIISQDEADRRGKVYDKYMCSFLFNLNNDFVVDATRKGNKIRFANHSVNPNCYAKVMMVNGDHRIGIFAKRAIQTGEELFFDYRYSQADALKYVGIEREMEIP

DB = assay: Antiproliferative activity against human DB cells expressing EZH2 mutant assessed as growth inhibition measured after 72 hrs by AlamaBlue assay
[2] = molecular target: DNA (cytosine-5)-methyltransferase 1 (Homo sapiens) (UniProt P26358); assay: Inhibition of human DNMT1 assessed as DNA methylation at 50 uM preincubated for 15 mins followed by addition of poly(dI-dC) and [3H]SAM as substrate measured after 2 hrs by radioactive methylation assay
[3] = Antiproliferative activity against human Toledo cells expressing wild-type EZH2 assessed as growth inhibition measured after 72 hrs by AlamaBlue assay
[4] = molecular target: T1, Histone-lysine N-methyltransferase EZH2; assay: Inhibition of PRC2 EZH2 sub unit (unknown origin) assessed as inhibition of SAM-mediated methyl transfer process preincubated for 15 mins followed by addition of H3K27me and [3H]SAM as substrate measured after 90 mins by radioactive methylation assay
Target sequence in this assay (Q15910 whole entry): as the sequence (Q15910 whole entry, looked up) above

Chain of DNA (cytosine-5)-methyltransferase 1 (Homo sapiens) (P26358 whole entry): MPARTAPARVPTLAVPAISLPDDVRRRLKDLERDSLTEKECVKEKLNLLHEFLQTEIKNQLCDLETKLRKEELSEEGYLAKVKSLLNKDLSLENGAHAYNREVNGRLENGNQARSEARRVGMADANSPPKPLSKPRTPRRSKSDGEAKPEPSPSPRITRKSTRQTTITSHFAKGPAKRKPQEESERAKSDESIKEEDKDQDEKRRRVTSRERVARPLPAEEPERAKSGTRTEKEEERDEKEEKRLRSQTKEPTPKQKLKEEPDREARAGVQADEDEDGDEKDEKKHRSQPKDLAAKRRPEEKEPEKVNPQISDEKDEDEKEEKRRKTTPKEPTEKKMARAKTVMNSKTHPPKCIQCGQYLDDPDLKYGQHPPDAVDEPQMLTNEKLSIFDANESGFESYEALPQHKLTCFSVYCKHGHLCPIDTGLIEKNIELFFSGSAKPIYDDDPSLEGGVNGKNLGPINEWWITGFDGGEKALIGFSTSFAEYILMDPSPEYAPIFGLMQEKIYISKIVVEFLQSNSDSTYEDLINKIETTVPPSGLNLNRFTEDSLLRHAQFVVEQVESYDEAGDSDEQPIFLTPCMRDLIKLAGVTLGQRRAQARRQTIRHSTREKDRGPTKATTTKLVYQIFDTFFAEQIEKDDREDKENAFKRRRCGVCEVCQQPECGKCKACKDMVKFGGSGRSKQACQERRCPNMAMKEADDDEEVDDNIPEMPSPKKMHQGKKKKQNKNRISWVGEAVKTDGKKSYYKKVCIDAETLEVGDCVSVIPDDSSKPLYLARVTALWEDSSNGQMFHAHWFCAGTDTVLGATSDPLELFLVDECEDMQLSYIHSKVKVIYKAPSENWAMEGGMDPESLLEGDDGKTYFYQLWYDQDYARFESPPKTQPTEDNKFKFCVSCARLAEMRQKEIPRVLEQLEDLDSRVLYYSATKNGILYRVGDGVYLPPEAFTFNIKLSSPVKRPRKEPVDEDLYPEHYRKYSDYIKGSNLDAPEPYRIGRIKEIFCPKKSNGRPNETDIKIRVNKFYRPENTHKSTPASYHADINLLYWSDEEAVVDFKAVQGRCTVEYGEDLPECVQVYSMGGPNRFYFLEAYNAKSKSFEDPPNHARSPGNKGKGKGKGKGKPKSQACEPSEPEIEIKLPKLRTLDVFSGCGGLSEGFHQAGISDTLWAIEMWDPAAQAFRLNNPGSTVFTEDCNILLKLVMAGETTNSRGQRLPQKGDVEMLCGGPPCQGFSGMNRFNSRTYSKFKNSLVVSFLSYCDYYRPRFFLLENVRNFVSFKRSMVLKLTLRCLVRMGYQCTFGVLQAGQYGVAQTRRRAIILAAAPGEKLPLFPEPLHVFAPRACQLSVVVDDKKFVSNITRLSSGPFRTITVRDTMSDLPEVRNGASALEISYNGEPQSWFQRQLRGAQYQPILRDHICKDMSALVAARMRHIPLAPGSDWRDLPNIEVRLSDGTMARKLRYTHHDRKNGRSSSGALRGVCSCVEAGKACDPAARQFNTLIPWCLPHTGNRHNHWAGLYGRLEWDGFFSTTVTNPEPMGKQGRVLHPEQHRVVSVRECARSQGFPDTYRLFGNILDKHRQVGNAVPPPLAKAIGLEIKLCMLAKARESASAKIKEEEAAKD

Row | inhibition [1] [%] | Structure (SMILES) | also measured
1 | 4 | CC1=CC(C)(C)Oc2c1c(=O)n(-c1ccccc1)c(=S)n2-c1ccc(C)cc1 | –
2 | 9 | Cn1c(=O)cc2c3c(c(N4CCOCC4)ccc31)C(=O)c1ccccc1-2 | –
3 | 0 | Cc1ccc(-n2nc3cc(C)c(NC(=O)NC(=O)Cc4ccccc4)cc3n2)cc1 | –
4 | 11 | O=C1C(Cc2ccccc2)=C(O)c2cccc3c2C1=C(O)CC3 | –
5 | 29 | O=C1CC(=C2c3ccccc3-c3ccccc32)C(=O)N1CCN1CCN(c2cccc(Cl)c2)CC1 | –
6 | -1 | CCOc1ccc(NC(=N)Nc2nc(O)cc(CSc3nnnn3-c3ccccc3)n2)cc1 | –
7 | 52 | Cn1c(-c2ccc(C=O)o2)nc2c3ccccc3c3ccccc3c21 | –
8 | 72 | COc1ccc2nc(Nc3nc(O)cc(CSc4nnnn4-c4ccccc4)n3)nc(C)c2c1 | IC50 (DB): 32.8 µM; inhibition [2]: 0%; IC50 [3]: 24.1 µM; IC50 [4]: 22.6 µM
9 | 28 | Cc1ccc2nc(Nc3nc(O)cc(CSc4nnnn4-c4ccccc4)n3)nc(C)c2c1 | –
10 | 5 | COc1ccc(-n2c(SCC(=O)c3ccc(Cl)cc3)nc3ccccc3c2=O)cc1 | –
11 | 2 | O=C(/C(=C(/[O-])c1ccc(Cl)cc1)[n+]1ccc2ccccc2c1)c1ccccc1 | –
12 | 14 | NS(=O)(=O)c1ccc(NC(=O)CN2C(=O)c3cccc4cccc(c34)C2=O)cc1 | –
13 | 41 | N#C/C(=C/c1ccc(-c2ccc(C(N)=O)cc2)o1)c1nc2ccccc2[nH]1 | –
14 | 9 | O=C1c2ccccc2NC(c2c[nH]nc2-c2ccccc2)N1O (configuration not stated) | –
15 | 2 | CC(=O)Nc1cc(C(=O)OC(C(=O)c2ccccc2)c2ccccc2)ccc1C (configuration not stated) | –
16 | 0 | COc1ccc(CN2CCN(c3cc(C)c(C#N)c4nc5ccccc5n34)CC2)cc1 | –
17 | -7 | CN1c2ccccc2Oc2nnc(N3CCN(C(c4ccccc4)c4ccccc4)CC3)cc21 | –
18 | 1 | CC12CCCc3c(-c4ncn[nH]4)c(-c4ccccc4)c(=O)n(c31)-c1ccccc12 (configuration not stated) | –
19 | -1 | Cc1ccc(C(=O)CSc2nc3sc4c(c3c(=O)n2-c2ccccc2)CCCC4)s1 | –
20 | -2 | O=c1c(-c2ccccc2)c(O)c2c(n1-c1ccccc1)CCCC2 | –
21 | 19 | Cc1ccc2c(C)nc(Nc3nc(O)cc(CSc4nnnn4-c4ccccc4)n3)nc2c1 | –
22 | 34 | O=C1c2ccccc2-c2cccc3c2c1cc1ccccc13 | –

More lines, now with the values behind:

Row | Structure (SMILES) | inhibition [1] [%] | also measured
23 | COc1ccc2nc(Nc3nc(O)cc(CSc4nnc(C)s4)n3)nc(C)c2c1 | -9 | –
24 | Cc1ccc2c(c1)C1CN(C)CCC1N2C(=O)c1ccc2ccccc2c1 (configuration not stated) | 0 | –
25 | NC(=O)c1ccc(N=C2C(=O)Nc3ccc([N+](=O)[O-])cc32)cc1 | 6 | –
26 | Cc1cc(C)nc(NC2=NCCS2)n1 | 16 | –
27 | Cc1cc(O)nc(Nc2ccccc2)n1 | -2 | –
28 | COc1ccc(C(=O)C(OC(=O)c2ccc(C)c(NC(C)=O)c2)c2ccccc2)cc1 (configuration not stated) | 9 | –
29 | N/N=C1/CCCc2c1[nH]c1ccc(F)cc21 | 18 | –
30 | O=C(NC1CCSC1=O)c1cccc(C(=O)NC2CCSC2=O)c1 (configuration not stated) | 6 | –
31 | Cc1ccc2c(c1)C1CN(C)CCC1N2C(=O)Cc1ccc(Cl)cc1 (configuration not stated) | 4 | –
32 | CCN(CC)c1ccc2cc(-c3nnc(Nc4cc(OC)ccc4OC)o3)c(=O)oc2c1 | 25 | –
33 | OCCNCC(O)Cn1c2ccc(Br)cc2c2cc(Br)ccc21 (configuration not stated) | -9 | –
34 | O=C(c1cnn2c1NC(c1ccc(Br)cc1)CC2C(F)(F)F)N1CCN2CCCC2C1 (configuration not stated) | -2 | –
35 | Cc1cc(C)nc(Nc2n[nH]c(-c3ccccc3Cl)n2)n1 | 17 | –
36 | NC(=O)CCN1CCN(CCOC2Cc3cc(Cl)ccc3Sc3ccccc32)CC1 (configuration not stated) | -6 | –
37 | CCOC(=O)C[n+]1ccc2c([nH]c3ccccc32)c1C | 7 | –
38 | Cc1ccc2nc(N=C(N)N)nc(C)c2c1 | 3 | –
